Patent US11365195B2, “Atypical inhibitors of monoamine transporters; method of making; and use thereof” (THE UNITED STATES OF AMERICA, AS REPRESENTED BY THE …, priority 2017, dated 2022)

Experiments:
σ1R = target: T1, σ1R (Cavia porcellus, UniProt Q60492); assay: σ1R radioligand binding in guinea pig cortex ([3H]-(+)-Pentazocine competition); settings: for σ1/DAT: ratio of σ1 to DAT affinity values; for σ1/SERT: ratio of σ1 to SERT affinity values
T1 construct: tissue BioReclamation IVT (Hicksville, N.Y.); host or cells: male Hartley guinea pig brain cortex membranes
Procedure: (§1) Binding affinities of the analogue compounds were evaluated at the DAT and SERT in rat brain membranes, and sigma-1 in guinea pig brain membranes according to the following protocols.
σ1R Radioligand Binding in Guinea Pig Cortex
Male Hartley guinea pig cortices were dissected from freshly harvested brains (shipped cold in PBS buffer from BioReclamation IVT (Hicksville, N.Y.)) and frozen at −80° C. for future use. […] The supernatant was collected in a clean tube and the pellet re-suspended in 10 ml of cold buffer and centrifuged again (˜1,200 rpm) for 10 min at 4° C. […] The final pellet was suspended in ice-cold binding buffer at 50 mg/ml concentration. […] All test compounds were freshly dissolved in 30% DMSO and 70% H2O to a stock concentration of 1 mM or 100 μM. When necessary, to assist the solubilization of compounds, 10 μl of glacial acetic acid was added along with the DMSO (in place of 10 μl final H2O volume). Each test compound was then diluted into 10 half-log serial dilutions using 30% DMSO as the vehicle. […] Nonspecific binding was determined using either 10 μM PRE084 or 10 μM (+)-Pentazocine and total binding was determined with 30% DMSO vehicle (3% DMSO final concentration). […] The filters were washed 3 times with 3 ml (3×1 ml/well) of ice cold binding buffer.

[1] = Phase I metabolic stability in rat liver microsomes; format: in vitro ADME; settings: for Phase I in Liver Microsomes, Negative Control: rat liver microsomes lacking NADPH; for Phase I in Liver Microsomes, Rat: with NADPH, 10 μM compound, 0.5 mg/mL microsomes
Procedure: Methods: Phase I metabolic stability assays were conducted in rat liver microsomes. For phase I metabolism, the reactions were carried out with 100 mM potassium phosphate buffer, pH 7.4, in the presence of NADPH regenerating system (1.3 mM NADPH, 3.3 mM glucose 6-phosphate, 3.3 mM MgCl2, 0.4 U/mL glucose-6-phosphate dehydrogenase, […] sodium citrate). Reactions in triplicate were initiated by addition of the liver microsomes to the incubation mixture (compound final concentration was 10 μM; 0.5 mg/mL microsomes). Compound disappearance was monitored via LC/MS/MS. […] The total run time for each analyte was 5.0 min.

DAT = target: T2, DAT (Rattus norvegicus, UniProt P23977); assay: DAT radioligand binding in rat striatum ([3H]-WIN35,428 competition); settings: for Ki: rat striatum membranes, [3H]-WIN35,428, mean ± SEM, read-out: DAT (rat striatum) Ki ± SEM; for SERT/DAT: ratio of SERT Ki to DAT Ki
T2 construct: 100 μl of tissue preparation (1.5 mg of brain striatum membranes per well); tissue Bioreclamation IVT (Hicksville, N.Y.); host or cells: male Sprague-Dawley rat brain striatum membranes
Procedure: as §1
DAT Radioligand Binding in Rat Striatum
The tissue was centrifuged at 20,000 rpm for 10 min at 4° C. The pellet was suspended in cold buffer and centrifuged again using the same settings. The resulting pellet was resuspended in cold buffer at a concentration of 15 mg/mL OWW (original wet weight). On test day, all test compounds were freshly dissolved in 30% DMSO and 70% H2O to a stock concentration of 1 mM or 100 μM When necessary, to assist the solubilization of compounds, 10 μl of glacial acetic acid was added along with the DMSO (in place of 10 μl final H2O volume). Each test compound was then diluted into 10 half-log serial dilutions using 30% DMSO vehicle. […] Non-specific binding was determined using […] Indatraline and total binding was determined with 30% DMSO vehicle. The reaction was started with the addition of the tissue. […] The filters were washed 3 times with 3 mL (3×1 mL/well) of ice cold binding buffer. […] These analyses were performed using GraphPad Prism version 6.00 for Macintosh (GraphPad Software, San Diego, Calif.).

SERT = target: T3, SERT (Rattus norvegicus, UniProt P31652); assay: SERT radioligand binding in rat midbrain ([3H]-Citalopram competition); settings: rat midbrain/brain stem membranes, [3H]-Citalopram, mean ± SEM; read-out: SERT (rat mid-brain-stem) Ki ± SEM
T3 construct: 100 μl of tissue preparation (2 mg of brain stem membranes per well); tissue Bioreclamation IVT (Hicksville, N.Y.); host or cells: male Sprague-Dawley rat brain stem membranes
Procedure: as §1
SERT Radioligand Binding in Rat Midbrain
The tissue was centrifuged at 20,000 rpm for 10 min at 4° C. The pellet was suspended in cold buffer and centrifuged again using the same settings. The resulting pellet was resuspended in cold buffer at a concentration of 20 mg/mL OWW (original wet weight). On test day, all test compounds were freshly dissolved in 30% DMSO and 70% H2O to a stock concentration of 1 mM or 100 μM. When necessary, to assist the solubilization of compounds, 10 μl of glacial acetic acid was added along with the DMSO (in place of 10 μl final H2O volume). Each test compound was then diluted into 10 half-log serial dilutions using 30% DMSO vehicle. […] Non-specific binding was determined using […] Fluoxetine HCl and total binding was determined with 30% DMSO vehicle. The reaction was started with the addition of the tissue. All compound dilutions were tested in triplicate and the reaction incubated for 60 min at room temperature. The reaction was terminated by filtration through Perkin Elmer Uni-Filter-96 GF/B, presoaked for 60 min in 0.3% polyethylenimine, using a Brandel 96-Well Plates Harvester Manifold (Brandel Instruments, Gaithersburg, Md.). The filters were washed 3 times with 3 mL (3×1 mL/well) of ice cold binding buffer. […] These analyses were performed using GraphPad Prism version 6.00 for Macintosh (GraphPad Software, San Diego, Calif.).

T3 sequence (P31652 whole entry): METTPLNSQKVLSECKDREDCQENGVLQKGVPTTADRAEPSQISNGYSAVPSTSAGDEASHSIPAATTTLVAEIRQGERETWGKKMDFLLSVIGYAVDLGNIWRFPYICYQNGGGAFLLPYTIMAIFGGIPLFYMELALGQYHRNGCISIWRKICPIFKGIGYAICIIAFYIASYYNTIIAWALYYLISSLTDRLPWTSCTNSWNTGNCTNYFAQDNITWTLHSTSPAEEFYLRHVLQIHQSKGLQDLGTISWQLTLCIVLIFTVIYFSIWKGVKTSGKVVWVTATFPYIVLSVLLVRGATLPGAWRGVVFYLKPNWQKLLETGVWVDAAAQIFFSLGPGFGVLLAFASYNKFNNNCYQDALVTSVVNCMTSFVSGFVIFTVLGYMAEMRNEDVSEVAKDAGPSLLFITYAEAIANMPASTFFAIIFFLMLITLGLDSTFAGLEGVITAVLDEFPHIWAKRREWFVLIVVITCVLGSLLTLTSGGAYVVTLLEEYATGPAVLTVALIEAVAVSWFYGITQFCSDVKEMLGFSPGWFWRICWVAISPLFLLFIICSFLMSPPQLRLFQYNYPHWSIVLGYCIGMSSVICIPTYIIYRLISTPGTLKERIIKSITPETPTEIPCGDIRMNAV
T1 sequence (Q60492 whole entry): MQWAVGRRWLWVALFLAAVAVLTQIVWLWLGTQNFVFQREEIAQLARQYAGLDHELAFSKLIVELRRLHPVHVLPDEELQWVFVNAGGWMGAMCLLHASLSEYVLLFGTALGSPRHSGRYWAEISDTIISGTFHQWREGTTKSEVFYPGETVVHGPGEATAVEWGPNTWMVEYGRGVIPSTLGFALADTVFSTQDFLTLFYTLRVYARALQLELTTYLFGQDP
T2 sequence (P23977 whole entry): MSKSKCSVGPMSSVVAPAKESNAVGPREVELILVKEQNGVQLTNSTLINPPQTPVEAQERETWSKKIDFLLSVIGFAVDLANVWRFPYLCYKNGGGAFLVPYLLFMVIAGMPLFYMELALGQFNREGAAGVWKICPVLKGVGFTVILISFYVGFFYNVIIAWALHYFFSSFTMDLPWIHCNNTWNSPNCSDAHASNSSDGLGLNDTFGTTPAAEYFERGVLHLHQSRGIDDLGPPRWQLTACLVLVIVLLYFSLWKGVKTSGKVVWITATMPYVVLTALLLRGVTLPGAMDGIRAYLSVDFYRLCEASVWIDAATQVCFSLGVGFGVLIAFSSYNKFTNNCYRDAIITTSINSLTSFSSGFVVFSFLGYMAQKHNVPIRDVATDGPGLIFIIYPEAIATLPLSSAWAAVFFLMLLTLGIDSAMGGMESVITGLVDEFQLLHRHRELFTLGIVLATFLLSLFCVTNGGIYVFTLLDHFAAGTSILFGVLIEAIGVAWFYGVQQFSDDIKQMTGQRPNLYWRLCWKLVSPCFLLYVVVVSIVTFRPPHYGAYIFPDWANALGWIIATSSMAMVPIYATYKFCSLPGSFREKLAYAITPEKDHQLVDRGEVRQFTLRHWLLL

Row | Compound | σ1/DAT (σ1R) | σ1/SERT (σ1R) | Phase I in Liver Microsomes, Negative Control ([1]; 0 min) [%] | Phase I in Liver Microsomes, Rat ([1]; 0 min) [%] | Phase I in Liver Microsomes, Negative Control ([1]; 30 min) [%] | Phase I in Liver Microsomes, Rat ([1]; 30 min) [%] | Phase I in Liver Microsomes, Negative Control ([1]; 60 min) [%] | Phase I in Liver Microsomes, Rat ([1]; 60 min) [%] | stability to Phase I metabolism (in words) ([1]; rat liver microsomes fortified with NADPH) | Ki (DAT) [nM] | SERT/DAT (DAT) | Ki (SERT) [nM]
1 | C[C@@H]1CN(CCSC(c2ccc(F)cc2)c2ccc(F)cc2)C[C@H](C)N1CC(O)Cc1ccccc1 (stereo partly drawn) [RDS03-095, 1-((2S,6R)-4-(2-((bis(4-fluorophenyl)methyl)thio)ethyl)-2,6-dimethylpiperazin-1-yl)-3-phenylpropan-2-ol] | 7.60 | 0.010 | 100 | 100 | 117 | 42 | 125 | 10 | susceptibility | 2 ± 0.15 | 800.00 | 1600 ± 152
2 | Cl.Cl.[O-][S+](CCNC1CCN(Cc2ccc(F)cc2)CC1)C(c1ccc(F)cc1)c1ccc(F)cc1 (centres unmarked) [JBG02-054, N-(2-((Bis(4-fluorophenyl)methyl)sulfinyl)ethyl)-1-(4-fluorobenzyl)piperidin-4-amine] | 0.52 | 0.072 | 100 | 100 | 102 | 100 | 102 | 95 | – | 50.6 ± 11.2 | 7.31 | 370 ± 23.7
3 | CC(O)CN1[C@H](C)CN(CC[S+]([O-])C(c2ccc(F)cc2)c2ccc(F)cc2)C[C@@H]1C (stereo partly drawn) [RDS04-010, 1-((2S,6R)-4-(2-((Bis(4-fluorophenyl)methyl)sulfinyl)ethyl)-2,6-dimethylpiperazin-1-yl)propan-2-ol] | 1.29 | 0.017 | 100 | 100 | 130 | 115 | 108 | 95 | – | 245 ± 49.7 | 77.55 | 19000 ± 2550
4 | Cl.Cl.Fc1ccc(CN2CCC(NCCSC(c3ccc(F)cc3)c3ccc(F)cc3)CC2)cc1 [JBG01-077, N-(2-((Bis(4-fluorophenyl)methyl)thio)ethyl)-1-(4-fluorobenzyl)piperidin-4-amine] | 0.52 | 0.048 | 100 | 100 | – | 88 | 111 | 70 | – | 25.5 ± 6.95 | 10.86 | 277 ± 5.94
